Among the data in PubChem BioAssay AID342 (DTP/NCI, 2004) are T/C values, retold here.

Values joined by “and” are separate entries in the source; they are usually repeats but may differ in a detail not shown here. Identical values can stand only once.

This experiment has as its system Swiss mice, Sarcoma 180 sc, mean tumor weight T/C. Description: NCI In Vivo Anticancer Drug Screen. Data for tumor model Sarcoma 180 (subcutaneous) in Swiss mice. To be noted: endpoint: mean tumor weight, higher = larger tumour. Summed up: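 Transplantable tumors were established in mice, compound was given, then survival or tumor size was recorded. The treated value was divided by the vehicle-control value.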

Setting [1] is: dose: 36.0 mg/kg/injection, schedule: Q01DX007 (ip), vehicle: other.
The mark [2] stands for this setting: dose: 0.5 mg/kg/injection, schedule: Q01DX007 (ip), vehicle: carboxymethylcellulose (CMC).
The mark [3] stands for this setting: dose: 1.0 mg/kg/injection, schedule: Q01DX007 (ip), vehicle: carboxymethylcellulose (CMC).

On to `c1ccc2c(c1)-c1cccc3c1c-2cc1ccccc13`, for which the T/C by setting is: (dose: 25.0 mg/kg/injection, schedule: Q01DX007 (ip), vehicle: other) 53 % of control; under setting [1], 36 % of control and 47 % of control; (dose: 55.0 mg/kg/injection, schedule: Q01DX007 (ip), vehicle: carboxymethylcellulose (CMC)) 35 % of control; (dose: 55.0 mg/kg/injection, schedule: Q01DX007 (ip), vehicle: other) 57 % of control; (dose: 82.5 mg/kg/injection, schedule: Q01DX007 (ip), vehicle: other) 26 % of control and 42 % of control; (dose: 125.0 mg/kg/injection, schedule: Q01DX007 (ip), vehicle: other) 14 % of control.
Regarding `CC1CN1C(=O)Nc1cccc2c(NC(=O)N3CC3C)cccc12` (stereo not drawn), the T/C runs as follows: (dose: 9.5 mg/kg/injection, schedule: Q#A X014 (ip), vehicle: methylcellulose (MC)) 66 % of control; (dose: 14.0 mg/kg/injection, schedule: Q#A X014 (ip), vehicle: methylcellulose (MC)) 62 % of control; (dose: 20.5 mg/kg/injection, schedule: Q#A X014 (ip), vehicle: methylcellulose (MC)) 31 % of control; (dose: 21.0 mg/kg/injection, schedule: Q#A X014 (ip), vehicle: methylcellulose (MC)) 35 % of control; (dose: 31.5 mg/kg/injection, schedule: Q#A X014 (ip), vehicle: methylcellulose (MC)) 23 % of control; (dose: 35.0 mg/kg/injection, schedule: Q01DX007 (ip), vehicle: carboxymethylcellulose (CMC)) 50 % of control. In addition, the T/C is, setting by setting: (dose: 35.0 mg/kg/injection, schedule: Q01DX007 (ip), vehicle: saline) 53 % of control; (dose: 47.0 mg/kg/injection, schedule: Q#A X014 (ip), vehicle: methylcellulose (MC)) 7 % of control; (dose: 53.0 mg/kg/injection, schedule: Q01DX007 (ip), vehicle: saline) 46 % of control; (dose: 80.0 mg/kg/injection, schedule: Q01DX007 (ip), vehicle: saline) 35 % of control.
`CC1C[C@@H]2[C@H]([C@@H](O)C[C@@]3(C)[C@H]2CC[C@]3(O)C(=O)CF)[C@@]2(C)CCC(=O)C=C12` (stereo partly drawn): the T/C is, setting by setting: (dose: 5.2 mg/kg/injection, schedule: Q01DX007 (sc), vehicle: steriod suspending solution) 106 % of control; (dose: 10.5 mg/kg/injection, schedule: Q01DX007 (sc), vehicle: steriod suspending solution) 105 % of control; (dose: 21.2 mg/kg/injection, schedule: Q01DX007 (sc), vehicle: steriod suspending solution) 81 % of control; (dose: 42.5 mg/kg/injection, schedule: Q01DX007 (sc), vehicle: steriod suspending solution) 45 % of control; (dose: 62.0 mg/kg/injection, schedule: Q#A X014 (sc), vehicle: steriod suspending solution) 55 % of control and 57 % of control; (dose: 85.0 mg/kg/injection, schedule: Q01DX007 (sc), vehicle: steriod suspending solution) 25 % of control. Moreover, the T/C reads like this: (dose: 93.5 mg/kg/injection, schedule: Q#A X014 (sc), vehicle: steriod suspending solution) 36 % of control and 41 % of control and 50 % of control; (dose: 210.75 mg/kg/injection, schedule: Q#A X014 (sc), vehicle: steriod suspending solution) 38 % of control and 52 % of control; (dose: 300.0 mg/kg/injection, schedule: Q01DX007 (sc), vehicle: steriod suspending solution) 26 % of control; (dose: 600.0 mg/kg/injection, schedule: Q01DX007 (sc), vehicle: steriod suspending solution) 20 % of control.
Regarding `O=C1NC(=O)C2(CCCc3ccc(N(CCCl)CCCl)cc32)N1` (stereo not drawn), the T/C is 70 % of control (dose: 16.0 mg/kg/injection, schedule: Q01DX007 (ip), vehicle: other); 67 % of control (dose: 16.0 mg/kg/injection, schedule: Q01DX007 (ip), vehicle: saline); 107 % of control (dose: 24.0 mg/kg/injection, schedule: Q01DX007 (ip), vehicle: other); 85 % of control (dose: 24.0 mg/kg/injection, schedule: Q01DX007 (ip), vehicle: saline); 61 % of control under setting [1]; 75 % of control (dose: 36.0 mg/kg/injection, schedule: Q01DX007 (ip), vehicle: saline). The T/C is 52 % of control (dose: 55.0 mg/kg/injection, schedule: Q01DX007 (ip), vehicle: saline); 29 % of control (dose: 125.0 mg/kg/injection, schedule: Q01DX007 (ip), vehicle: saline); 65 % of control (dose: 188.0 mg/kg/injection, schedule: Q01DX007 (ip), vehicle: other); 80 % of control (dose: 282.0 mg/kg/injection, schedule: Q01DX007 (ip), vehicle: other); 81 % of control (dose: 423.0 mg/kg/injection, schedule: Q01DX007 (ip), vehicle: other).
Take `Nc1n[se]nc1C(=O)O`: the T/C is 96 % of control under setting [2]; 117 % of control under setting [3]; 77 % of control (dose: 2.0 mg/kg/injection, schedule: Q01DX007 (ip), vehicle: carboxymethylcellulose (CMC)).
Regarding `C#C[C@]1(O)CC[C@H]2[C@@H]3CCc4cc(O)ccc4[C@H]3CC[C@@]21C`, the T/C reads like this: (dose: 125.0 mg/kg/injection, schedule: Q#A X014 (sc), vehicle: steriod suspending solution) 30 % of control and 48 % of control and 50 % of control; (dose: 187.5 mg/kg/injection, schedule: Q#A X014 (sc), vehicle: steriod suspending solution) 39 % of control and 50 % of control and 51 % of control; (dose: 281.25 mg/kg/injection, schedule: Q#A X014 (sc), vehicle: steriod suspending solution) 62 % of control and 76 % of control.
Take `C=C(C)C(=O)OCC1CO1` (stereo not drawn): the T/C reads like this: (dose: 250.0 mg/kg/injection, schedule: Q01DX007 (ip), vehicle: other) 97 % of control; (dose: 375.0 mg/kg/injection, schedule: Q01DX007 (ip), vehicle: other) 74 % of control.
On to `COC1C(OC(N)=O)C(O)C(Oc2ccc3c(O)c(NC(=O)c4ccc(O)c(CC=C(C)C)c4)c(=O)oc3c2C)OC1(C)C` (stereo not drawn), for which the T/C (dose: 200.0 mg/kg/injection, schedule: Q01DX007 (ip), vehicle: saline) is 102 % of control.
Turning to `CN1CCCC1c1cccnc1` (stereo not drawn), the T/C reads like this: (dose: 0.25 mg/kg/injection, schedule: Q01DX007 (ip), vehicle: carboxymethylcellulose (CMC)) 76 % of control; under setting [2], 105 % of control; under setting [3], 66 % of control.
For `Nc1nc(=O)n(C2CC(O)C(CO)O2)cc1F` (stereo not drawn), the T/C is 10 % of control (dose: 22.0 mg/kg/injection, schedule: Q#A X014 (ip), vehicle: saline); 7 % of control (dose: 33.5 mg/kg/injection, schedule: Q#A X014 (ip), vehicle: saline); 3 % of control (dose: 50.0 mg/kg/injection, schedule: Q#A X014 (ip), vehicle: saline); 2 % of control (dose: 75.0 mg/kg/injection, schedule: Q#A X014 (ip), vehicle: saline).
In the case of `CC(=O)[C@H]1CC[C@H]2[C@@H]3CCC4=CC(=O)CC[C@]4(C)[C@H]3CC[C@]12C`, the T/C was 89 % of control (dose: 125.0 mg/kg/injection, schedule: Q01DX007 (sc), vehicle: steriod suspending solution); 76 % of control (dose: 250.0 mg/kg/injection, schedule: Q01DX007 (sc), vehicle: steriod suspending solution); 61 % of control (dose: 500.0 mg/kg/injection, schedule: Q01DX007 (sc), vehicle: steriod suspending solution); 79 % of control (dose: 1000.0 mg/kg/injection, schedule: Q01DX007 (sc), vehicle: steriod suspending solution).
Regarding `[N-]=[N+]=NC1(C(=O)O)CCCC1`, the T/C (dose: 66.0 mg/kg/injection, schedule: Q01DX007 (ip), vehicle: carboxymethylcellulose (CMC)) is 71 % of control; the T/C (dose: 100.0 mg/kg/injection, schedule: Q01DX007 (ip), vehicle: carboxymethylcellulose (CMC)) is 60 % of control; the T/C (dose: 225.0 mg/kg/injection, schedule: Q01DX007 (ip), vehicle: carboxymethylcellulose (CMC)) is 63 % of control.
Consider `Nc1nc(=S)c2ncn(C3OC(CO)C(O)C3O)c2[nH]1` (stereo not drawn), for which the T/C (dose: 0.62 mg/kg/injection, schedule: Q#A X014 (ip), vehicle: carboxymethylcellulose (CMC)) is 86 % of control; the T/C (dose: 1.25 mg/kg/injection, schedule: Q#A X014 (ip), vehicle: carboxymethylcellulose (CMC)) is 91 % of control; the T/C (dose: 1.3 mg/kg/injection, schedule: Q#A X014 (ip), vehicle: carboxymethylcellulose (CMC)) was 86 % of control and 95 % of control; the T/C (dose: 2.0 mg/kg/injection, schedule: Q#A X014 (ip), vehicle: carboxymethylcellulose (CMC)) is 83 % of control and 94 % of control; the T/C (dose: 2.5 mg/kg/injection, schedule: Q#A X014 (ip), vehicle: carboxymethylcellulose (CMC)) was 86 % of control; the T/C (dose: 2.65 mg/kg/injection, schedule: Q#A X014 (ip), vehicle: carboxymethylcellulose (CMC)) is 51 % of control and 74 % of control. For the setting “dose: 5.0 mg/kg/injection, schedule: Q#A X014 (ip), vehicle: carboxymethylcellulose (CMC)”, the T/C is 90 % of control.
`O=CC1CO1` (stereo not drawn): the T/C (dose: 50.0 mg/kg/injection, schedule: Q01DX007 (ip), vehicle: carboxymethylcellulose (CMC)) is 123 % of control.
